The text below walks through data of patent US20260158002A1, “APPLICATION OF COMPOSITION CONTAINING EDARAVONE AND DEXBORNEOL IN IMPROVING OR TREATING COGNITIVE IMPAIRMENT” (NEURODAWN PHARMACEUTICAL CO., LTD., priority 2021, published 2026).

Assay [1] relates to mouse model of AlCl3/D-galactose-induced cognitive impairment. Particulars: intraperitoneal for 15 consecutive days; cited from earlier work.
The subject of assay [2] is APP/PS1 transgenic mouse model. Particulars: cited from earlier work.
In assay [3] the test system is rat model of L-methionine-induced vascular dementia. Particulars: intraperitoneal 6 mg/kg/day for 9 consecutive weeks; cited from earlier work.
Assay [4] concerns SH-SY5Y and primary cortical neurons. Particulars: cited from earlier work.
The subject of assay [5] is 5×FAD transgenic mice. Description: Brain slice electrophysiology test (hippocampal LTP) in 5×FAD transgenic mice. The format is in vivo, mouse. The settings on record: brain slices after 16 weeks of administration; edaravone 6 mg/kg or composition 7.5 mg/kg i.p. once daily. The protocol:
(§1) In the experiment, the animals were divided into 4 groups. Administration was performed on the mice in each group from 8 weeks of age. After 16 weeks of continuous daily administration, water maze and Y maze behavioral tests were performed. After the behavioral tests were completed, the animals were sacrificed, and brain slice electrophysiology and AD pathology within the brain were tested, including the test of Aβ plaques, biomarkers such as GFAP and Iba-1, p-Tau, etc.
Electrophysiological recording was performed after the behavioral test of mice was completed. After anesthesia, all mice were euthanized, the brain tissues were rapidly collected and stored in 4° C. oxygenated (95% O2/5% CO2) artificial cerebrospinal fluid (ACSF) (75 mM sucrose, 87 mM NaCl, 2.5 mM KCl), 1.25 mM NaH2PO4, 21.4 mM NaHCO3, 0.5 mM CaCl2, 7 mM MgCl2 and 20 mM glucose. Hippocampal slices were cut by a vibrating knife in 4° C. oxygenated ACSF, and in 32° C. oxygenated ACSF. Next, the slices were incubated at room temperature for 1 hour before recording. Hippocampal LTP was induced by two theta burst stimulations (TBS). Data acquisition and analysis were performed using Clampex and Clampfit 8.2 (Molecular Devices).
(§2) Data were expressed as Mean±SEM. […]

In assay [6] the test system is 5×FAD transgenic mice. Description: Water maze test in 5×FAD transgenic mice. It counts as in vivo, mouse. Particulars: 5×FAD mice. The procedure:
as §1
5×FAD: edaravone group: ten 5×FAD mice were given edaravone ( ? ®) 6 mg/kg via i.p. at a dose of 10.0 mL/kg once daily.
5×FAD: composition group: ten 5×FAD mice were given 7.5 mg/kg edaravone and dexborneol concentrated solution for injection ( ? ®) (edaravone:dexborneol=4:1, containing 6 mg/kg edaravone and 1.5 mg/kg dexborneol) at a dose of 10.0 ml/kg once daily.
Experiment preparation: A constant temperature pool (120 cm in inner diameter and 50 cm in height) of a water maze was filled with clear water. The water temperature was controlled at about 18° C.-22° C. The four apexes of the pool were selected and designated as “S”, “N”, “W” and “E”, respectively. The platform was placed in the “SW” direction and 1-2 cm below the water surface. Titanium dioxide was added to the water to make the water opaque milky white.
Parameter setting: the test time was set to 1 min, and the residence time of mice on the platform was set to 2 s.
Training: The first 5 days were for the training phase of the water maze, the mice were placed in the pool in four different orientations every day, and their trajectories before boarding the platform, as well as the travel and time in each quadrant were recorded.
Testing: Testing was performed on the first day after the training was completed. During the testing, the platform was removed, the testing time was 60 s, the mouse was placed in the NE orientation, and the number of times the mouse crossed the platform and the time in the platform quadrant during the testing were recorded.
as §2

In assay [7] the test system is primary hippocampal neurons. Particulars: cited from earlier work.
The target in the next assay is Aβ1-42 (Homo sapiens, UniProt P05067). The settings on record: in vitro; concentration range of 0.156 to 5 μM; cited from earlier work.
The test system of assay [8] is rat model of scopolamine-induced dementia. The settings on record: oral 15 mg/kg/day for 7 consecutive days; cited from earlier work.
Setting [9] is: edaravone 6 mg/kg or composition 7.5 mg/kg i.p. once daily for 16 weeks.

Chain of Aβ1-42 (P05067 672-713 limits assumed): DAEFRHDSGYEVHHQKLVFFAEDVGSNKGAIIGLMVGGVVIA

With `CC1=NN(c2ccccc2)C(=O)C1` [edaravone, 3-methyl-1-phenyl-2-pyrazolin-5-one], the “cognitive function in water maze test and step-down test” value in [1] was “significantly improves the cognitive function as tested by water maze test and step-down test”. Also, the “deficits in the cognitive function in water maze test” value in assay [2] (APP/PS1 mice, 12.6 mg/kg intraperitoneal twice a week, prophylactic (3 to 9 months) and therapeutic (9 to 12 months)) is “can improve the deficits in the cognitive function in water maze test”. Besides, in assay [2] (APP/PS aged mice (14 to 17 months), oral with drinking water 8, 24 and 72 mg/kg/day), the “cognitive function of aged transgenic mice” value is “significantly improves the cognitive function of aged transgenic mice”. In assay [2] (mice aged 3-12 months, oral with drinking water 33.2 mg/kg/day), the “Aβ plaque deposition within the brain and cognitive function” value was “can also reduce Aβ plaque deposition within the brain and improve the cognitive function of mice”. In addition, the “spatial learning and memory in eight-arm water maze test” value in assay [3] was “can significantly improve the spatial learning and memory of the model rats in eight-arm water maze test”. Also, the “neurotoxicity of Aβ1-42” value in [4] is “capable of reducing the neurotoxicity of Aβ1-42 to SH-SY5Y and primary cortical neurons”. For the same compound, in the assay on 5×FAD transgenic mice [5], the “restoration of hippocampal LTP, vs 5×FAD mouse group” value is “no obvious restoration effect”. Besides, in the assay with 5×FAD transgenic mice [6] (setting [9]), the “number of times the mouse crossed the platform in platform withdrawal test, vs solvent control” value was “prolong the residence time in the target quadrant and the number of times the mouse crossed the platform”; the “residence time in the target quadrant in platform withdrawal test, vs solvent control” value is reported as “prolong the residence time in the target quadrant”. Besides, the “escape latency in water maze hidden platform test, vs solvent control” value in the assay on 5×FAD transgenic mice [6] (edaravone 6 mg/kg or composition 7.5 mg/kg i.p. once daily for 16 weeks from 8 weeks of age) is recorded as “could significantly shorten the escape latency”. Further, the “H2O2- and glutamate-induced death of primary hippocampal neurons” value in [7] is “capable of reducing H2O2— and glutamate-induced death of primary hippocampal neurons”. Moreover, the “aggregation of Aβ1-42 monomer as Aβ fibrils and disaggregation of Aβ fibrils” value at Aβ1-42 was “capable of inhibiting the aggregation of Aβ1-42 monomer as Aβ fibrils and disaggregating Aβ fibrils in a concentration-dependent manner”. The “scopolamine-induced spatial learning and long-term memory impairments” value in assay [8] was “can improve scopolamine-induced spatial learning and long-term memory impairments”.
